Laboratory results published in US20240166681A1, “3'3' CYCLIC DINUCLEOTIDES CONTAINING ISONUCLEOTIDIC UNITS” (INSTITUTE OF ORGANIC CHEMISTRY AND BIOCHEMISTRY AS CR, V. …, priority 2021, published 2024).

Experiments:
AQ STING (G230A-R293Q) = molecular target: T1, AQ STING (G230A-R293Q) (Homo sapiens, UniProt Q86WV6, G230A/H232R/R293Q); test: Differential scanning fluorimetry with AQ STING; assay type: binding; settings: thermal shift, truncated human AQ STING 0.1 mg/ml, 150 μM CDN; for ΔTm at 150 µM: read-out: DSF ΔTm AQ STING
T1 construct: truncated human WT STING or AQ STING (amino acid residues 140-343); 8xHis (N, cleaved yes); SUMO (N, cleaved yes); made in house; host or cells: E. coli Rosetta-gami B (DE3)
Description: Both WT and AQ human STING (G230A-R293Q) cDNA were amplified by the use of PCR (Phusion® High-Fidelity DNA Polymerase, cat. #M0530S, NEB, Ipswich, USA) using oligonucleotides hSTING140-BamH-For ([…]) (SEQ ID NO:5) and hSTING379-Not-Rev3 ([…]) (SEQ ID NO:6) from pUNO1-hSTING-WT (cat. #puno1-hstingwt, InvivoGen, San Diego, USA) and pUNO1-hSTING-HAQ plasmids (punol-hsting-haq, InvivoGen, San Diego, USA). Purified PCR products were cleaved with restriction enzymes BamHI (cat. #R0136S, NEB, Ipswich, USA) and Notl (cat. #R0189S, NEB, Ipswich, USA) and cloned into the pSUMO vector linearized with the identical enzymes. Plasmid pSUMO was created by introducing 8-His-SUMO sequence between Ndel and BamHI sites of pHis-parallel2 plasmid (Clontech, Moutain View, USA). pSUMO-STING WT or pSUMO-STING AQ plasmids thus encoded truncated human WT STING or AQ STING (amino acid residues 140-343) with N-terminal 8xHis and SUMO tag.
The recombinant WT STING and AQ STING proteins were overexpressed in Rosetta-gami B (DE3) competent cells (cat. #71136-3, Merck Millipore, Billerica, USA). Bacterial pellets were re-suspended in ice-cold lysis buffer containing 50 mmol·l^−1 TrisCl (cat. #T1503, Sigma Aldrich, Czech Republic) pH 8.0, 300 mmol·l^−1 NaCl, 3 mmol·l^−1 β-mercaptoethanol (cat. #M6250, Sigma Aldrich, Czech Republic), 10% glycerol (cat. #G5516, Sigma Aldrich, Czech Republic) and 20 mmol·l^−1 imidazole (cat. #15513, Sigma Aldrich, Czech Republic) using Dounce homogenizer. DNase I (cat. #D5025, Sigma Aldrich, Czech Republic) and RNase A (cat. #R6513, Sigma Aldrich, Czech Republic) were added (final concentration 50 μg/ml) together with MgCl2 (final concentration 5 mmol·l^−1) to the homogenate and bacteria were lysed using French Press G-M™ High-Pressure Cell Press Homogenizer (1500 psi, 3 cycles). Lysate was spun 30,000 g for 20 minutes and supernatant was gently stirred with Ni-NTA resin (cat. #745400.25 Macherey-Nagel, Duren, Germany) for 30 minutes. The resin was poured into a chromatography column, washed with 50 ml buffer A (50 mmol·l^−1 TrisCl (pH 8.0), 800 mmol·l^−1 NaCl, 3 mmol·l^−1 (3-mercaptol; 10% glycerol; 20 mmol·l^−1 imidazole) and 8-His-SUMO tagged STING proteins were eluted with 15 ml buffer A containing 300 mmol·l^−1 imidazole. The eluted proteins were cleaved with recombinant SUMO protease (80 μg/ml of protein solution, cat. #12588018, ThermoFisher, Waltham, USA). The proteins were further purified by size exclusion chromatography using HiLoad 16/60 Superdex 75 (cat. #28989333, GE Healthcare Bio-Sciences, Pittsburgh, USA) in 50 mmol·l^−1 Tris Cl buffer pH 7.4 containing 150 mmol·l^−1 NaCl, and 10% glycerol. Proteins were concentrated with Amicon® Ultra-15 10 K device (cat. #UFC901008, Merck Millipore, Billerica, USA) and flash frozen in liquid N2.
WT and AQ allelic forms of STING protein were diluted to the final concentration 0.1 mg/ml in 100 mmol·l^−1 TrisCl buffer pH 7.4 containing, 150 mmol·l^−1 NaCl, 1:500 SYPRO Orange (cat. #S6650, ThermoFisher, Waltham, USA) and 150 μM CDN or water. 20 μL solutions of the reaction mixtures were pipetted in triplicates into 96 well optical reaction plates and thermal denaturation of samples were performed on real time PCR cycler (LightCycler® 480 Instrument II—Roche, Basel, Switzerland). The first derivative of the thermal denaturation curves was performed to calculate denaturing temperatures of STING—CDN complexes and STING apoproteins. The thermal shift for each CDN was calculated by subtracting the average denaturing temperature of STING apoprotein from the average denaturing temperature of STING CDN complex.

WT STING = WT STING (Homo sapiens, UniProt Q86WV6, H232R); test: 293T WT STING standard reporter assay; assay type: cell-based; set-up: host or cells: 293T (ATCC CRL-3216), stably transfected; settings: 293T wtSTING-FL cells, no digitonin, 7 h incubation, luciferase reporter
Description: After 5 minutes incubation at room temperature (RT), 250 μL of the mixture was added dropwise to the cells in one well. Cells were incubated 36 hours at 37° C. with 5% CO2, and then detached with 0.05% Trypsin and 0.22 g/L EDTA (both cat. #L0941, Biowest, Riverside, USA).
Transfected cells were seeded onto poly-D-lysine coated six well plates at density 50,000 cells per 1 cm^2 in DMEM medium with high glucose containing 10% heat inactivated FBS, 30 μg/mL blasticidin (cat. #ant-b1-05, InvivoGen, San Diego, USA), 0.06 mg/ml Penicillin G and 0.1 mg/ml Streptomycin Sulfate (both cat. #. L0018, Biowest, Riverside, USA). The medium was replenished every 3-4 days until visible colonies of cells resistant to blasticidin were formed.
Blasticidin resistant cells stably expressing WT STING were further transfected with […] plasmid following the same procedure as described above. […] Homogeneous culture of stably double transfected cells was prepared by limiting dilution of cells in 96 well plates and wells with cells were selected that originated from a single cell.
The medium was removed next day and three-fold serial dilutions of compounds in 100 μl medium were added to the cells. The plates with cells were incubated for 7 hours at 37° C. with 5% CO2. After 50 μl of the medium was removed, 30 μl of ONE-Glo™ Luciferase Assay System reagent (cat. #E6120, Promega, Madison, USA) was added to each well and luminescence was read on Synergy H1 (Biotek, Winooski, USA). […] (cat. #tlrl-nacga23), and 2′2′-cGAMP (cat. #tlrl-nacga22) were purchased from Invivogen (San Diego, USA).

T1 sequence (Q86WV6 140-343 G230A/H232R/R293Q): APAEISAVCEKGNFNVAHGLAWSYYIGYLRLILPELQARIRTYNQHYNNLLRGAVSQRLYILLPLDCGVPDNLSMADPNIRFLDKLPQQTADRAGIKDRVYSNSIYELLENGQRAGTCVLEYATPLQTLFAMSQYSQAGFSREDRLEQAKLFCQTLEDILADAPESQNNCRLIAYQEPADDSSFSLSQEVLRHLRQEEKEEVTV
WT STING, sequence (Q86WV6 whole entry H232R): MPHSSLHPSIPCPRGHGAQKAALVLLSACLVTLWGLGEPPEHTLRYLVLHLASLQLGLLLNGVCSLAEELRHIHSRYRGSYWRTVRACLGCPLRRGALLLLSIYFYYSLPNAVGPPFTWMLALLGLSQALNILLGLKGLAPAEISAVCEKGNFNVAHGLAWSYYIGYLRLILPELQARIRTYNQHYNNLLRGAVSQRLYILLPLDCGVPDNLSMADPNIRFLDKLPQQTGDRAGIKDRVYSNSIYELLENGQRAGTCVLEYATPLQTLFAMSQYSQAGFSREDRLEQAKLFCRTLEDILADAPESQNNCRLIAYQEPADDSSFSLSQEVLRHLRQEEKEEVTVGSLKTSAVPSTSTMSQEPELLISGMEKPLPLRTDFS

Compound | ΔTm at 150 µM (AQ STING (G230A-R293Q)) [°C] | EC50 (WT STING) [µM] | DSF ΔTm AQ STING (AQ STING (G230A-R293Q)) [°C]
Nc1nc2c(ncn2[C@@H]2O[C@@H]3COP(=O)(O)O[C@H]4[C@H](n5cnc6c(N)ncnc65)CO[C@@H]4COP(=O)(O)O[C@H]3[C@H]2F)c(=O)[nH]1 [Compound 24, (1S,6R,8R,9R,10R,15R,18R)-8-(2-amino-6-oxo-6,9-dihydro-1H-purin-9-yl)-18-(6-amino-9H-purin-9-yl)-9-fluoro-3,12-dihydroxy-2,4,7,11,13,16-hexaoxa-3λ^5,12λ^5-diphosphatricyclo[13.3.0.0^6,10]octadecane-3,12-dione] | 16.9 |  | 
Nc1ncnc2c1ncn2[C@@H]1CO[C@@H]2COP(=O)(O)O[C@H]3[C@@H](F)[C@H](n4cnc5c(N)ncnc54)O[C@@H]3COP(=O)(O)O[C@@H]12 [Compound 28, (1S,6R,8R,9R,10R,15R,18R)-8,18-bis(6-amino-9H-purin-9-yl)-9-fluoro-3,12-dihydroxy-2,4,7,11,13,16-hexaoxa-3λ^5,12λ^5-diphosphatricyclo[13.3.0.0^6,10]octadecane-3,12-dione] | 13.3 |  | 
Nc1ncnc2c1ncn2[C@@H]1CC[C@@H]2COP(=O)(O)O[C@H]3[C@@H](F)[C@H](n4cnc5c(N)ncnc54)O[C@@H]3COP(=O)(O)O[C@H]21 [Compound 34, (1R,6R,8R,9R,10R,15R,18R)-8,18-bis(6-amino-9H-purin-9-yl)-9-fluoro-3,12-dihydroxy-2,4,7,11,13-pentaoxa-3λ^5,12λ^5-diphosphatricyclo[13.3.0.0^6,10]octadecane-3,12-dione] | 9.2 |  | 
Nc1ncnc2c1ncn2[C@@H]1CO[C@@H]2COP(=O)(O)O[C@H]3C[C@H](n4cnc5c(N)ncnc54)O[C@@H]3COP(=O)(O)O[C@@H]12 [Compound 50, (1S,6R,8R,10S,15R,18R)-8,18-bis(6-amino-9H-purin-9-yl)-3,12-dihydroxy-2,4,7,11,13,16-hexaoxa-3λ^5,12λ^5-diphosphatricyclo[13.3.0.0^6,10]octadecane-3,12-dione] | 9.3 |  | 
Nc1nc2c(ncn2[C@@H]2CO[C@@H]3COP(=O)(O)O[C@H]4[C@@H](F)[C@H](n5cnc6c(N)ncnc65)O[C@@H]4COP(=O)(O)O[C@@H]23)c(=O)[nH]1 [Compound 51, (1S,6R,8R,9R,10R,15R,18R)-18-(2-amino-6-oxo-6,9-dihydro-1H-purin-9-yl)-8-(6-amino-9H-purin-9-yl)-9-fluoro-3,12-dihydroxy-2,4,7,11,13,16-hexaoxa-3λ^5,12λ^5-diphosphatricyclo[13.3.0.0^6,10]octadecane-3,12-dione] | 15.8 |  | 
Nc1nc2c(ncn2[C@@H]2CO[C@@H]3COP(=O)(O)O[C@H]4[C@H](n5cnc6c(N)ncnc65)CO[C@@H]4COP(=O)(O)O[C@@H]23)c(=O)[nH]1 [Compound 52, (1S,6R,9R,10S,15R,18R)-9-(2-amino-6-oxo-6,9-dihydro-1H-purin-9-yl)-18-(6-amino-9H-purin-9-yl)-3,12-dihydroxy-2,4,7,11,13,16-hexaoxa-3λ^5,12λ^5-diphosphatricyclo[13.3.0.0^6,10]octadecane-3,12-dione] | 10.7 |  | 
Nc1nc2c(ncn2[C@@H]2CO[C@@H]3COP(=O)(O)O[C@H]4C[C@H](n5cnc6c(N)ncnc65)O[C@@H]4COP(=O)(O)O[C@@H]23)c(=O)[nH]1 [Compound 53, (1S,6R,8R,10S,15R,18R)-18-(2-amino-6-oxo-6,9-dihydro-1H-purin-9-yl)-8-(6-amino-9H-purin-9-yl)-3,12-dihydroxy-2,4,7,11,13,16-hexaoxa-3λ^5,12λ^5-diphosphatricyclo[13.3.0.0^6,10]octadecane-3,12-dione] | 11.5 |  | 
Nc1ncnc2c1ncn2[C@@H]1CO[C@@H]2COP(=O)(S)O[C@H]3[C@@H](F)[C@H](n4cnc5c(N)ncnc54)O[C@@H]3COP(=O)(S)O[C@@H]12 (stereo partly drawn) [Compound 54, (1S,6R,8R,9R,10R,15R,18R)-8,18-bis(6-amino-9H-purin-9-yl)-9-fluoro-3,12-disulfanyl-2,4,7,11,13,16-hexaoxa-3λ^5,12λ^5-diphosphatricyclo[13.3.0.0^6,10]octadecane-3,12-dione] | 17.2 | 0.156 | 
Nc1ncnc2c1ncn2[C@@H]1CO[C@@H]2COP(=O)(S)O[C@H]3[C@@H](F)[C@H](n4cnc5c(N)ncnc54)O[C@@H]3COP(=O)(S)O[C@@H]12 (stereo partly drawn) [Compound 55, (1S,6R,8R,9R,10R,15R,18R)-8,18-bis(6-amino-9H-purin-9-yl)-9-fluoro-3,12-disulfanyl-2,4,7,11,13,16-hexaoxa-3λ^5,12λ^5-diphosphatricyclo[13.3.0.0^6,10]octadecane-3,12-dione] |  | 0.34 | 20.0
